The source of these data is patent US20220089550A1, “CRYSTALLINE FORMS OF (S)-2-(7-CYANO-1H-BENZIMIDAZOL-1 YL)-N-{1-[4-(1-CYANO-1-METHYLETHYL)PHENYL]ETHYL}ACETAMIDE” (NEOMED INSTITUTE - INSTITUT NEOMED, priority 2019, published 2022).

Converted amounts (≈) assume the structure as drawn.

For one data set, the target named is VR1 receptor (Homo sapiens, UniProt Q8NER1). To be noted: whole cells, intracellular Ca2+ imaging, assay of WO 2008018827; read-out: IC50, antagonist of capsaicin responses; cited from earlier work.
VR1 receptor, sequence (Q8NER1 whole entry): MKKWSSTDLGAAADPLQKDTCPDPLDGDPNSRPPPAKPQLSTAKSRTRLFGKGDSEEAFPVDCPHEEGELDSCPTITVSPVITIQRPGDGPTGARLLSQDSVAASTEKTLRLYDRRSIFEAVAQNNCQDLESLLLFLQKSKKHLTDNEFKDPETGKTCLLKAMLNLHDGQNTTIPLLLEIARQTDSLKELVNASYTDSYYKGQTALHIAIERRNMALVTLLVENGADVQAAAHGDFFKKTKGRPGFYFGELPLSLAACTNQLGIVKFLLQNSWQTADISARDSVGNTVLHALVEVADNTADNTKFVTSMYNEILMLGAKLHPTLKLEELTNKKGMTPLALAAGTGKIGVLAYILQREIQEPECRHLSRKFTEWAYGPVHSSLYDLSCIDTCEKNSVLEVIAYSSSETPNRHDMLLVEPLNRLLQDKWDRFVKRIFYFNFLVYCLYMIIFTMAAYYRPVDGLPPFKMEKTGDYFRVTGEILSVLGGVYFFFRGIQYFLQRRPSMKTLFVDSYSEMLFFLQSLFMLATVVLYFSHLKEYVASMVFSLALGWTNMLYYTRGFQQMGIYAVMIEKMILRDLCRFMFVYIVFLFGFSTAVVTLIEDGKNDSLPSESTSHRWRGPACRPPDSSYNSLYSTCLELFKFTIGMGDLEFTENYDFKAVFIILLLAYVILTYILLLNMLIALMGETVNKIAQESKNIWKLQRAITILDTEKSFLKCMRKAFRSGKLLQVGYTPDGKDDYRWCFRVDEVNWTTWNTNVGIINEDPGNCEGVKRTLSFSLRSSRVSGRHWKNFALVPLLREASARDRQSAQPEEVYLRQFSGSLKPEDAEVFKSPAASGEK
Data set [1] is described as follows: Thermal stability (TGA, variable temperature XRPD). The format is physicochemical. The method, then:
Crystals of Form C can be converted (3) to crystals of Form A. For example, crystals of Form C are converted to crystals of Form A by heating the crystals of Form C to 155° C. under nitrogen. Furthermore, crystals of Form C can be converted (5) to crystals of Form F. For example, crystals of Form C are converted to crystals of Form F by heating to 136° C. under nitrogen. […] Further heating of this sample generates a mixture of crystals of Form A and Form F.
Compound 1 appears to be chemically stable up to the decomposition temperature of about 250° C. […] The solid-state stability of the crystalline forms is compared by evaluating the relative “thermodynamic stability” of the crystalline forms and the interconversion between crystalline forms upon heating or when slurrying.
TGA was conducted for each crystalline form using a TA Q500/Q5000 TGA from TA Instruments. For each analysis, the TGA cell/sample chamber was purged with ultra-high purity nitrogen gas. The sample crystal was placed into the bottom of an open aluminium pan. […] The weight was plotted versus the measured sample temperature. The data were reported in % of the initial weight. The TGA thermograms for Forms A to F were obtained and can be seen at FIGS. 7 to 12.

The nature of data set [2]: Slurry conversion of Form A/Form E and Form A/Form F mixtures in IPA. To be noted: equal-mass mixtures with Form E or Form F in pre-saturated IPA, room temperature, 48 h. The data set is classed as physicochemical. How it is done: Excess amounts of crystals of Form A were added to 2 mL of IPA. The mixture was magnetically stirred at a speed of 750 rpm at room temperature overnight to obtain a saturated solution. The saturated solution was filtered on a PTFE membrane (0.45 μm) to remove the excess solids.
An equal-mass physical mixture of crystals of Form A and Form E (6 mg of each Form) was added into 0.5 mL of the pre-saturated IPA solution and magnetically stirred at a speed of 750 rpm for 48 h. Solids were isolated from the suspension by centrifugation and an XRPD test was performed (shown at FIG. 19(b)).
Similarly, an equal-mass physical mixture of crystals of Form A and Form F (6 mg of each Form) was added into 0.5 mL of the pre-saturated IPA solution and magnetically stirred at a speed of 750 rpm for 48 h. Solids were isolated from the suspension by centrifugation and an XRPD test was performed (shown at FIG. 19(c)).
In the case of both mixtures, only crystals of Form A were isolated after stirring for 48 h.

Data set [3] can be described thus: Approximate solubility of crystals of Form A at room temperature. The format is physicochemical. To be noted: thermodynamic from solid. The method, then:
Approximately 2 mg solids were added into a 3-mL glass vial. Solvents as listed in Table 7 were then added stepwise into the vials until the solids were dissolved or a total volume of 1 mL was reached. The results are summarized in Table 7, and were used to guide solvent selection in the polymorph screening.

A short description of data set [4]: Stability tests for Form A (temperature, relative humidity, compression; XRPD). The format is physicochemical. How it is done: Experiments were conducted to evaluate the stability of Form A under various temperature, relative humidity and compression conditions.

A word on the IC50: it is the concentration at which inhibition is half-maximal. As to `C[C@H](NC(=O)Cn1cnc2cccc(C#N)c21)c1ccc(C(C)(C)C#N)cc1` [Compound 1, (S)-2-(7-Cyano-1H-benzimidazol-1-yl)-N-{1-[4-(1-cyano-1-methylethyl)phenyl]ethyl}acetamide], the half-inhibitory concentration (IC50) at VR1 receptor was 41 to 49 nM. Also, the “Decomposition temperature (chemically stable up to)” value in data set [1] (TGA, 10° C./min, nitrogen) is “about 250 °C”.
As usually defined, the solubility is the dissolved amount per volume that the medium holds. `C[C@H](NC(=O)Cn1cnc2cccc(C#N)c21)c1ccc(C(C)(C)C#N)cc1` [Form A, (S)-2-(7-Cyano-1H-benzimidazol-1-yl)-N-{1-[4-(1-cyano-1-methylethyl)phenyl]ethyl} acetamide]: the “Temperature up to which the crystalline form is stable” value in data set [1] (heating, variable temperature XRPD / DSC) was “about 167.9 °C”. In addition, in data set [2], the “Thermodynamic stability by slurry conversion” value was “thermodynamically stable form at room temperature among the three anhydrate Forms”. For the same compound, the solubility in data set [3] (25 °C, organic solvent or mixture, 1,4-Dioxane, room temperature) is greater than 36 mg/mL; in data set [3] (25 °C, organic solvent or mixture, 2-MeTHF, room temperature) it was greater than 36 mg/mL; in data set [3] (25 °C, organic solvent or mixture, ACN, room temperature) it was greater than 40 mg/mL; in data set [3] (25 °C, organic solvent or mixture, Acetone, room temperature) it was greater than 38 mg/mL; in data set [3] (25 °C, organic solvent or mixture, Anisole, room temperature), 7.3 to 22 mg/mL (≈ 19.7 to 59.2 mM); in data set [3] (25 °C, organic solvent or mixture, CHCl3, room temperature), greater than 42 mg/mL. Moreover, the solubility in data set [3] (25 °C, organic solvent or mixture, DCM, room temperature) was greater than 40 mg/mL; in data set [3] (25 °C, organic solvent or mixture, DMAc, room temperature) it was greater than 36 mg/mL; in data set [3] (25 °C, organic solvent or mixture, DMSO, room temperature), greater than 44 mg/mL; in data set [3] (25 °C, organic solvent or mixture, EtOAc, room temperature), 22 to 44 mg/mL (≈ 59.2 to 118 mM); in data set [3] (25 °C, organic solvent or mixture, EtOH, room temperature), greater than 40 mg/mL; in data set [3] (25 °C, organic solvent or mixture, IPA, room temperature), 7 to 21 mg/mL (≈ 18.8 to 56.5 mM). Also, the solubility in data set [3] (25 °C, organic solvent or mixture, IPAc, room temperature) is 6.7 to 20 mg/mL (≈ 18 to 53.8 mM); in data set [3] (25 °C, organic solvent or mixture, MEK, room temperature), greater than 40 mg/mL; in data set [3] (25 °C, organic solvent or mixture, MIBK, room temperature), 18 to 36 mg/mL (≈ 48.5 to 96.9 mM); in data set [3] (25 °C, organic solvent or mixture, MTBE, room temperature) it was less than 1.8 mg/mL; in data set [3] (25 °C, organic solvent or mixture, THF, room temperature) it was greater than 40 mg/mL; in data set [3] (25 °C, organic solvent or mixture, Toluene, room temperature), less than 2.1 mg/mL. Further, the solubility is less than 2.2 mg/mL in data set [3] (25 °C, organic solvent or mixture, n-Heptane, room temperature); greater than 42 mg/mL in data set [3] (organic solvent or mixture, MeOH, room temperature (25° C.±2° C.)); less than 2.1 mg/mL in data set [3] (water, 25 °C, H2O, room temperature). Further, the “Effect of grinding on XRPD” value in data set [4] (aggressive grinding for 2 minutes) is given as “minor decrease in the relative intensity of the peaks”. In addition, the “Stability of the crystal structure (XRPD) on stressed samples” value in data set [4] (various temperature, relative humidity and compression conditions, compared to Form A as synthesized) was “crystalline structure remained generally similar”.
